This assay deals with T1, AR-TIF2 PPI (Homo sapiens, UniProt P10275).
T1 construct: AR-LBD residues (662-919) were incorporated into one biosensor; expressed in transfected cells; host or cells: U-2 OS osteosarcoma cells, coinfected with recombinant adenoviruses
T1 sequence (P10275 662-919): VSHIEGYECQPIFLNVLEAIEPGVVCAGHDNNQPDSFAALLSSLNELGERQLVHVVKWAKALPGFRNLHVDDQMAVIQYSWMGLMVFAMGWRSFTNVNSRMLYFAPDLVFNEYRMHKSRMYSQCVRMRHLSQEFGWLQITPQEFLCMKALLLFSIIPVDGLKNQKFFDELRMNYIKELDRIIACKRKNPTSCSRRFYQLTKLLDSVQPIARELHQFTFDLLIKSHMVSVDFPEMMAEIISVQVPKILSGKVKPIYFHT
Nature of the assay: AR-TIF2 PPIB HCS assay: inhibition of DHT-induced AR-TIF2 PPI formation (compound then DHT). The assay is classed as cell-based. The conditions noted are these: U-2 OS cells. The method, then: AR-TIF2 Protein-Protein Interaction Biosensor Assay: The AR-TIF2 PPIB HCS assay was performed in U-2 OS osteosarcoma cells as described previously (Fancher et al., Assay Drug Dev Technol. 2016, 14:453-477; Fancher et al., Assay Drug Dev Technol. 2018, 16:297-319; Hua et al., Assay Drug Dev Technol. 2014, 12:395-418; Hua et al., Methods Mol Biol. 2018, 1683:211-227). Briefly, U-2 OS cells were coinfected with recombinant adenovirus biosensor expression constructs and seeded at 2,500 cells per well in 384-well collagen-coated microplates (Greiner Bio-One #781956) and plates were incubated overnight at 37° C. in 5% CO2 and 95% humidity. […] After the appropriate time, assay plates were fixed by transfer of 50 μL of pre-warmed (37° C.) 7.4% formaldehyde and 2 μg/mL Hoechst 33342 in PBS and incubation at room temperature for 30 minutes. Liquid was aspirated, plates were washed twice with 85 μL PBS, leaving the final wash in the plate. Plates were sealed with adhesive aluminum plate seals, and fluorescent images of three fields of view were acquired in the DAPI (Hoechst stained nuclei), FITC (TIF2-GFP) and Texas Red (AR-RFP) channels on an ImageXpress® Micro (IXM) automated HCS platform (Molecular Devices LLC, Sunnyvale, CA) using a 10× Plan Fluor 0.3 NA objective. Images were analyzed using the Translocation Enhanced (TE) image analysis module of the MetaXpress® software (Molecular Devices, LLC, San Jose, CA) as described previously (Fancher et al., Assay Drug Dev Technol. 2016, 14:453-477; Fancher et al., Assay Drug Dev Technol. 2018, 16:297-319; Hua et al., Assay Drug Dev Technol. 2014, 12:395-418; Hua et al., Methods Mol Biol. 2018, 1683:211-227).
For the 96-well AR-LBD H^3-DHT radioligand binding assay, eight minimum and maximum plate control wells were utilized to normalize the data. For the PC cell line growth inhibition assays the DMSO control data from the TO and T72 assay plates was used to assess the dynamic range of the T0 to T72 cell growth, and to calculate S:B ratios and Z′-factor coefficient statistics for the assay signal window (T0 to T72). To normalize the 72 h compound exposure PC growth inhibition data, the signals from the compound treated wells were processed and expressed as % of the T72 DMSO plate controls. IC50 and GI50 values for each of the bioassays were calculated using GraphPad Prism 9 software to plot and fit data to curves using the Sigmoidal dose response variable slope equation Y=Bottom+[Top-Bottom]/[1+10^(Log EC50−X)*HillSlope].
A positional AR-TFI2 protein-protein interaction biosensor (PPIB) assay was used to identify small molecules that inhibited DHT-induced formation of AR-TIF2 PPIs and/or disrupted pre-existing AR-TIF2 PPIs (Fancher et al., Assay Drug Dev Technol 2016, 14(8):453-477; Fancher et al., Assay Drug Dev Technol 2018, 16(6):297-319; Hua et al., Assay Drug Dev Technol 2014, 12:395-418; Hua et al., Methods Mol biol 2018, 1683:211-227). AR-LBD residues (662-919) were incorporated into one biosensor and TIF2 residues (725-840) containing the 3rd NR box LXXLL motif into the second interacting biosensor partner (Id.) The AR-TIF2 PPIB recapitulates the orthosteric ligand (OSL)-induced translocation of AR from the cytoplasm into the nucleus where PPIs with TIF2 result in colocalization of both biosensors in the nucleolus. Using three libraries, a total of 143,535 compounds were screened—a 10,000-compound ChemDiv PPI focused diversity library, a 50,000-compound ChemBridge diversity library, and a 83,535-compound library provided by the NCI's Chemical Biology Consortium. The 10K and 50K diversity libraries were subsets of 142K and 810K parent libraries, enabling screening of a representative subset of >1×10^6 compounds. AR-TIF2 PPI inhibitor and disruptor actives were confirmed in the HCS assay and counter screens designed to identify and exclude nuisance/interference or non-selective compounds (Fancher et al., Assay Drug Dev Technol 2018, 16(6):297-319). […]

Where [1] appears, read: compound then DHT, read-out: C then D IC50.
Setting [2] is: 25 nM DHT, read-out: Inhibition DHT-induced AR-TIF2 PPI Formation IC50.

Our source for the IC50 values is patent US20260083751A1, “ALLOSTERIC MODULATORS OF ANDROGEN RECEPTOR COACTIVATOR RECRUITMENT FOR CRPC THERAPY” (University of Pittsburgh – Of the Commonwealth System of …, priority 2022, published 2026).

Read-outs that look alike come from different tables or passages of the source.

For orientation: IC50 means the point on the concentration scale where inhibition reaches its midpoint. Consider `Cc1c(-c2ccccc2F)[nH]c2ccc(CNC(=O)c3ccc(CO)o3)cc12` [Compound S3-14], for which, under setting [1], the IC50 worked out at 2.42 µM. The same measure, in the same setting: the figure for `Cc1cccc2c(-c3ccc(O)c(F)c3)c[nH]c12` [Compound S3-17] is 3.87 µM; for `COc1cc(-c2ccc(C)s2)cc2c1OCCN(c1nc(C(N)=O)cs1)C2` [Compound S1-5] it is 26.2 µM; for `Cc1nc(N)cc(N2CCOc3c(O)cc(-c4ccccc4C)cc3C2)n1` [Compound S1-2] it is 14.5 µM.

Regarding `Cc1nsc(NC(=O)N2CCC(Sc3ccccc3C)CC2)n1` [Compound S2-6], the IC50 under setting [2] came out at 0.62 µM.

In the case of `Cc1ccccc1-c1cc(O)c2c(c1)CN(c1cc(N)ncn1)CCO2` [Compound S1-4], the IC50 was above 100 µM under setting [2] and above 100 µM under setting [1]. For the compound `Cc1nsc(NC(=O)N2CCC(Cn3ccnc3)CC2)n1` [Compound S2-7], the half-inhibitory concentration (IC50) under setting [2] is above 100 µM and the IC50 under setting [1] was above 100 µM. `Cc1ccccc1-c1cc(O)c2c(c1)CN(c1nccs1)CCO2` [Compound S1-3]: the IC50 under setting [1] stood at 30.5 µM.

On to `Cc1ccccc1-c1cc(O)c2c(c1)CN(c1nc(C(N)=O)cs1)CCO2` [Compound S1-1], for which the IC50 runs as follows: under setting [2], 5.38 µM; under setting [1], 5.64 µM. As to `Cc1c(-c2ccc(F)cc2)[nH]c2ccc(CNC(=O)c3ccc(CO)o3)cc12` [Compound S3-15], under setting [1], the IC50 worked out at 6.7 µM. On to `CNC(=O)c1ccc(-c2c[nH]c3c(C)cccc23)cc1` [Compound S3-21], for which the 50% inhibitory concentration (IC50) is, setting by setting: under setting [2], around 36 µM; under setting [1], 36.1 µM. As for `CC(=O)NCCC(=O)NCc1ccc2[nH]c(-c3ccccc3F)c(C)c2c1` [Compound S3-13], the IC50 under setting [1] was 7.98 µM. Turning to `Cc1c(-c2ccccc2F)[nH]c2ccc(CNC(=O)CCc3cn[nH]c3)cc12` [Compound S3-11], the IC50 was determined as 3.11 µM under setting [2] and 3.25 µM under setting [1]. As for `Cc1c(-c2ccccc2F)[nH]c2ccc(CNC(=O)CCc3cnccn3)cc12` [Compound S3-12], the IC50 under setting [1] turned out to be 5.13 µM.
